System: normal human WI38 lung fibroblast cells
Experiment: Propidium iodide Sub-G1 analysis in normal cells
Assay type: cell-based
Conditions: forty-eight hours
Description: Apoptosis assay. Apoptotic cells were quantified by sub-G1 analysis. Cells were seeded at a density of 2.5×10^5to 5×10^5in a 6-well plate and treated forty-eight to seventy-two hours. After treatment, adherent cells were trypsinized and collected along with floating cells, washed with phosphate-buffered saline, and fixed in 70% ethanol. Cells were then incubated in a phosphate-citric acid buffer (0.2M Na2HPO4+0.1M citric acid, pH 7.8) at room temperature for five minutes, spun down, and resuspended for staining with 50 μg/mL propidium iodide (PI) in the presence of 250 μg/mL pancreatic ribonuclease (RNase A). Sub-G1 analyses were performed using an Epics Elite Epics flow cytometer (Coulter-Beckman). Propidium iodide and BrdU flow cytometry assay. Cells were seeded at a density of 5×10^5 in a 6-well plate and treated for forty-eight to seventy-two hours. After treatment, floating cells were collected, and adherent cells were trypsinized, pelleted, washed with phosphate-buffered saline, and fixed in 70% ethanol overnight. For propidium iodide (PI) based Sub-G1 apoptosis analysis, cells were spun down after fixation and resuspended in phosphate-citric acid buffer (0.2M Na2HPO4+0.1M Citric Acid, pH 7.8) at room temperature for five minutes. […] Samples were analyzed on an Epics Elite Epics flow cytometer (Coulter-Beckman).

Cn1c(=O)c2[nH]c(Nc3cccc(C(F)(F)F)c3)nc2n(C)c1=O [CB002-analog #4]
sub-G1 in normal cells: does not increase sub-G1
